Values quoted from earlier work as cited in patent publication US20210029988A1, “PEST REPELLENT COMPOSITION” (JGC CATALYSTS AND CHEMICALS LTD., priority 2018, published 2021).

Legend:
[1] = within 6 hours

For `CCN(CC)C(=O)c1cccc(C)c1` [DEET, N,N-diethyl-m-toluamide], the “Transdermally absorbed proportion of DEET applied on the skin” value [1] is given as “about 50%” and the “Vapor pressure at 20°C (VP)” value is given as 0.22 Pa.
